The results in this text go back to patent publication US20120225061A1, “TETRASUBSTITUTED CYCLOHEXYL COMPOUNDS AS KINASE INHIBITORS” (priority 2011, published 2012).

What is called EC50 is the concentration at which the effect is half-maximal. In general, IC50 refers to the concentration that gives 50% inhibition. High values mean lower potency, low ones higher potency.

Assay [1] deals with KMS11 (human myeloma cell line). Description: Cell proliferation assay (CellTiter-Glo) in KMS11 cells. Type of assay: cell-based. The settings on record: KMS-11, 72 h, Table 4, 3 days, read-out: KMS11-luc EC50. In outline:
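KMS11 cells at 2000 per well in IMDM/10% FBS were exposed to compound for 3 days. Viability was read by CellTiter-Glo luminescence.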
On the technique in general: In ATP-based viability assays light output follows the ATP content of the culture.

The target in assay [2] is Pim3 kinase (Homo sapiens, UniProt Q86V86). Description: KinaseGlo Pim3 ATP depletion assay. The assay is classed as biochemical. The settings on record: Table 4, 40 μM ATP, 100 μM BAD peptide. Here is the method:
(§1) The activity of PIM3 is measured using a luciferase-luciferin based ATP detection reagent to quantify ATP depletion resulting from kinase-catalyzed phosphoryl transfer to a peptide substrate. Compounds to be tested are dissolved in 100% DMSO and directly distributed into white 384-well plates at 0.5 μl per well. […] After 15 minutes, 10 μl of 80 μM ATP in assay buffer is added. Final assay concentrations are 5 nM PIM1, 40 μM ATP, 100 μM BAD peptide and 2.5% DMSO. The reaction is performed until approximately 50% of the ATP is depleted, then stopped by the addition of 20 μl KinaseGlo Plus (Promega Corporation) solution. The stopped reaction is incubated for 10 minutes and the remaining ATP detected via luminescence on the Victor2 (Perkin Elmer).
For orientation: In Kinase-Glo more light means more ATP remaining.

Assay [3] addresses Pim2 kinase (Homo sapiens, UniProt Q9P1W9). Description: KinaseGlo Pim2 ATP depletion assay. The assay is classed as biochemical. To be noted: Table 4, 5 nM PIM2, 4 μM ATP, 10 μM BAD peptide. As to the method:
as §1, with “of PIM2” for “of PIM3”, “of 8” for “of 80”, “nM PIM2, 4” for “nM PIM1, 40”, “ATP, 10” for “ATP, 100”, “stopped with” for “stopped by”

The target of assay [4] is Pim1 kinase (Homo sapiens, UniProt P11309). Nature of the assay: KinaseGlo Pim1 ATP depletion assay. The settings on record: Table 4, 2.5 nM PIM1, 20 μM ATP, 40 μM BAD peptide. The assay is classed as biochemical. As to the method: as §1, with “PIM1” for “PIM3”, “40” for “80”, “Final assay concentrations are 5 nM PIM1, 40 μM ATP, 100 μM BAD peptide and 2.5% DMSO.” left out, “with” for “by”

Some results are limits rather than exact numbers.

Chain of Pim2 kinase (Q9P1W9 whole entry): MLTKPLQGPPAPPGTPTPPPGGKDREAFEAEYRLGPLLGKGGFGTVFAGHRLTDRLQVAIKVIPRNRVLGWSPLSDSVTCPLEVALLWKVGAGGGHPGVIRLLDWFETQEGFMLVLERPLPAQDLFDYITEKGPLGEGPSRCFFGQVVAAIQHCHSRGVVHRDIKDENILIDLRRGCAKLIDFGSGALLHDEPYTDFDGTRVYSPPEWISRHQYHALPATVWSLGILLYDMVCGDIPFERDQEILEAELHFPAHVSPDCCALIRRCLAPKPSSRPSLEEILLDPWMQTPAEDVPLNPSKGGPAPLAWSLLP
Chain of Pim1 kinase (P11309 whole entry): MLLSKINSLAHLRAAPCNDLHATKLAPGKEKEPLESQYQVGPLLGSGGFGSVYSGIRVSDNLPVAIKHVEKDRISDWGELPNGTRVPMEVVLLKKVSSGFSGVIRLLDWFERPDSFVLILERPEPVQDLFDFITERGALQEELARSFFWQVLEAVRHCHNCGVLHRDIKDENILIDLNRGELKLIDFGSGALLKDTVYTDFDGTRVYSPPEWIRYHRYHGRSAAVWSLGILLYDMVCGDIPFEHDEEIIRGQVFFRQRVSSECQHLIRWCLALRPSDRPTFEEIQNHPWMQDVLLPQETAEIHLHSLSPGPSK

On to `COC(=O)c1ccc(F)c(-c2ccc(N)c(C(=O)Nc3cnccc3[C@H]3C[C@@H](O)[C@](C)(O)[C@@H](C)C3)n2)n1` [Example 137, methyl 5′-amino-6′-(4-((1R,3R,4R,5S)-3,4-dihydroxy-4,5-dimethylcyclohexyl)pyridin-3-ylcarbamoyl)-3-fluoro-2,2′-bipyridine-6-carboxylate], for which the EC50 in assay [1] turned out to be 8580 nM. Moreover, the 50% inhibitory concentration (IC50) in assay [2] came to 2.3 nM; in assay [3] it was 5.4 nM; in assay [4], 1.5 nM.
On the same counts, the results for `C[C@H]1C[C@@H](c2ccncc2NC(=O)c2ccc(F)c(-c3c(F)cccc3F)n2)C[C@@H](O)C1(O)CO` (stereo in doubt) [Example 59, 6-(2,6-difluorophenyl)-N-(4-((1R,3R,4R,5S)-3,4-dihydroxy-4-(hydroxymethyl)-5-methylcyclohexyl)pyridin-3-yl)-5-fluoropicolinamide] are 1070 nM, 1.3 nM, 1.5 nM and 0.3 nM.
For `C[C@@H]1C[C@H](c2ccncc2NC(=O)c2ccc(F)c(-c3c(F)ccc(N)c3F)n2)C[C@H](O)[C@@]1(C)O` [Example 55, 6-(3-amino-2,6-difluorophenyl)-N-(4-((1S,3S,4S,5R)-3,4-dihydroxy-4,5-dimethylcyclohexyl)pyridin-3-yl)-5-fluoropicolinamide] the same measures were at least 10000 nM, 220 nM, 740 nM and 12.7 nM.
For `CC[C@]1(O)[C@H](O)C[C@H](c2ccncc2NC(=O)c2nc(-c3c(F)cccc3F)ncc2N)C[C@@H]1C` [Example 34, 5-amino-2-(2,6-difluorophenyl)-N-(4-((1R,3R,4R,5S)-4-ethyl-3,4-dihydroxy-5-methylcyclohexyl)pyridin-3-yl) pyrimidine-4-carboxamide] the same measures were 610 nM, 1.7 nM, 1.3 nM and 0.6 nM.
For `CC[C@]1(O)[C@H](O)C[C@H](c2ccncc2NC(=O)c2nc(-c3c(F)cccc3F)c(F)cc2N)C[C@@H]1C` [Example 33, 3-amino-6-(2,6-difluorophenyl)-N-(4-((1R,3R,4R,5S)-4-ethyl-3,4-dihydroxy-5-methylcyclohexyl)pyridin-3-yl)-5-fluoropicolinamide], the EC50 in assay [1] turned out to be 580 nM. Besides, the half-maximal inhibitory concentration (IC50) in assay [2] came to 1.8 nM; in assay [3] it was 1.1 nM; in assay [4], 0.5 nM.
For `Cc1ccc(F)c(-c2ccc(N)c(C(=O)Nc3cnccc3[C@H]3C[C@@H](O)[C@](C)(O)[C@@H](C)C3)n2)n1` [Example 138, 5-amino-N-(4-((1R,3R,4R,5S)-3,4-dihydroxy-4,5-dimethylcyclohexyl)pyridin-3-yl)-3′-fluoro-6′-methyl-2,2′-bipyridine-6-carboxamide] the same measures were at least 10000 nM, 2.6 nM, 12.9 nM and 1.7 nM.
On the same counts, the results for `C[C@H]1C[C@@H](c2ccncc2NC(=O)c2ccc(F)c(-c3c(F)ccc(N)c3F)n2)C[C@@H](O)[C@]1(C)O` [Example 56, 6-(3-amino-2,6-difluorophenyl)-N-(4-((1R,3R,4R,5S)-3,4-dihydroxy-4,5-dimethylcyclohexyl)pyridin-3-yl)-5-fluoropicolinamide] are 7960 nM, 2.9 nM, 5.3 nM and 0.4 nM.
For `CC(=O)OC[C@]1(O)[C@H](O)C[C@H](c2ccncc2NC(=O)c2ccc(F)c(-c3c(F)cccc3F)n2)C[C@@H]1C` [Example 43, ((1S,2R,4R,6S)-4-(3-(6-(2,6-difluorophenyl)-5-fluoropicolinamido)pyridin-4-yl)-1,2-dihydroxy-6-methylcyclohexyl) methylacetate], the EC50 in assay [1] amounted to 1540 nM. Moreover, the IC50 is 2 nM in assay [2], 2 nM in assay [3] and 0.4 nM in assay [4].
In the case of `C[C@@H]1C[C@H](c2ccncc2NC(=O)c2ccnc(-c3c(F)cccc3F)n2)C[C@H](O)[C@]1(O)CO` [Example 40, 2-(2,6-difluorophenyl)-N-(4-((1S,3S,4R,5R)-3,4-dihydroxy-4-(hydroxymethyl)-5-methylcyclohexyl)pyridin-3-yl) pyrimidine-4-carboxamide], the EC50 in assay [1] was at least 10000 nM. In addition, the figures for the IC50 in assay [2], in assay [3] and in assay [4] were 385 nM, 2880 nM and 209 nM, respectively.
On the same counts, the results for `C[C@H]1C[C@@H](c2ccncc2NC(=O)c2nc(-c3c(F)cncc3F)ccc2N)C[C@@H](O)[C@]1(C)O` [Example 141, 5-amino-N-(4-((1R,3R,4R,5S)-3,4-dihydroxy-4,5-dimethylcyclohexyl)pyridin-3-yl)-3′,5′-difluoro-2,4′-bipyridine-6-carboxamide] are 4870 nM, 2.2 nM, 2.1 nM and 1.1 nM.
On the same counts, the results for `C[C@H]1C[C@@H](c2ccncc2NC(=O)c2cccc(-c3c(F)cccc3F)n2)C[C@@H](O)[C@]1(C)O` [Example 58, 6-(2,6-difluorophenyl)-N-(4-((1R,3R,4R,5S)-3,4-dihydroxy-4,5-dimethylcyclohexyl)pyridin-3-yl) picolinamide] are 6060 nM, 2.6 nM, 3.4 nM and 0.4 nM.
As to `C[C@H]1C[C@@H](c2ccncc2NC(=O)c2nc(Br)ccc2N)C[C@@H](O)[C@]1(C)O` [Example 38, 3-amino-6-bromo-N-(4-((1R,3R,4R,5S)-3,4-dihydroxy-4,5-dimethylcyclohexyl)pyridin-3-yl) picolinamide], in assay [1], the EC50 is at least 10000 nM. Also, the half-maximal inhibitory concentration (IC50) in assay [2] is 9.3 nM; in assay [3], 24.3 nM; in assay [4], 3.6 nM.
On the same counts, the results for `C[C@H]1C[C@@H](c2ccncc2NC(=O)c2nc(-c3nc(Cl)ccc3F)ccc2N)C[C@@H](O)[C@]1(C)O` [Example 136, 5-amino-6′-chloro-N-(4-((1R,3R,4R,5S)-3,4-dihydroxy-4,5-dimethylcyclohexyl)pyridin-3-yl)-3′-fluoro-2,2′-bipyridine-6-carboxamide] are 5750 nM, 1.9 nM, 4.6 nM and 1 nM.
On the same counts, the results for `C[C@H]1C[C@@H](c2ccncc2NC(=O)c2nc(-c3nccs3)ccc2N)C[C@@H](O)[C@]1(C)O` [Example 52, 3-amino-N-(4-((1R,3R,4R,5S)-3,4-dihydroxy-4,5-dimethylcyclohexyl)pyridin-3-yl)-6-(thiazol-2-yl) picolinamide] are 9740 nM, 3.6 nM, 13.5 nM and 2 nM.
For `C[C@H]1C[C@@H](c2ccncc2NC(=O)c2nc(-c3ccnnc3)ccc2N)C[C@@H](O)[C@]1(C)O` [Example 142, 3-amino-N-(4-((1R,3R,4R,5S)-3,4-dihydroxy-4,5-dimethylcyclohexyl)pyridin-3-yl)-6-(pyridazin-4-yl)picolinamide] the same measures were at least 10000 nM, 245 nM, 769 nM and 152 nM.
